Source: US20070099867A1, “Pharmaceutical agent containing hyaluronan as an active ingredient” (GLYCOSCIENCE LABORATORIES, INC., priority 2005, published 2007)

Tests used:
[1] = test system: experimental autoimmune encephalomyelitis (EAE) multiple sclerosis model animals; assay: Experimental autoimmune encephalomyelitis (EAE) multiple sclerosis model, EAE neural symptom evaluation; type: in vivo, Lewis rats; conditions: for EAE clinical score at the EAE climax: Day 13 after antigen inoculation, saline 2.2±0.41; for diseased period: saline 6.5±0.55 days
[2] = test system: K562 (human erythroleukemia cell); assay: Cell viability by Rhodamine 123 staining after heat treatment; type: cell-based; conditions: K562, 20 minutes at 43° C. then 60 minutes at 37° C., HA4 100 ng/ml
Procedure: In this example, effect of the inventive pharmaceutical agent on cell viability was measured using Rhodamine 123. […] Accordingly, the degree of the staining with Rhodamine 123 serves as an index of the mitochondrial activity, thus the index of the cellular activity (see, non-patent reference 2).
In this example, a K562 (referred to as human erythroleukemia cell or human erythroblastoid leukemia cell) was used. The K562 was purchased from RIKEN, Japan.
In this example relating to preparation of test substance, HA4 was prepared at 100 ng/ml. Specifically, HA4 was prepared by the method of Tawada et al. (Tawada A, Masa T, Oonuki Y, Watanabe A, Matsuzaki Y, Asari A. Large-scale preparation, purification and characterization of hyaluronan oligosaccharides from 4-mers to 52-mers. Glycobiology, 2002; 12(7): 421-6) and the concentration was adjusted using a physiological saline.
First, the K562 was incubated under the condition described below. The culture medium for the K562 was an RPMI-1640 medium. In this example, the K562 was incubated in Groups 1 to 3 shown below. Each group was cultured under the condition described below. […]
The K562 after washing was inoculated at 1×10^4 cells/ml in a 96-well plate and a photograph was taken using a fluorescent microscope (Nikon). The image was sent to an Adobe Photoshop (Adobe Systems) where the fluorescent intensity of a cell was measured.

K562 [3] = assay: DNA chip gene expression analysis of cell viability genes (Example 3); type: cell-based, human; conditions: K562, 42° C. 20 minutes then 37° C. 30 minutes, HA4 10 ng/ml
Procedure: In this example, the cell viability enhancement of a pharmaceutical agent according to the invention was assessed using a DNA chip capable of monitoring a gene expression promotion/inhibition.
First, the K562 was incubated in Groups 1 and 2 in the […] described above. The both groups were incubated at 42° C. for 20 minutes followed by 37° C. for 30 minutes. The medium of Group 2 was supplemented with HA4 (10 ng/ml).
(§1) After the incubation, the medium was removed by centrifugation at 1000 rpm. The obtained cells were stored in a deep freezer at −60° C. From the cells thus stored, RNA was extracted according to a standard method. The extracted RNA was subjected to the DNA chip to analyze gene expressions. The DNA chip gene expression analysis was subtracted to DNA CHIP Research Inc. Specifically, the trade name: AceGene Human Oligo Chip 30K 1 Chip Version manufactured by DNA CHIP Research Inc. was employed.

K562 [4] = assay: DNA chip expression analysis of cytokine-associated and chemokine-associated genes (Example 4); type: cell-based, human; conditions: K562, 42° C. 20 minutes then 37° C. 30 minutes, HA4 10 ng/ml
Procedure: In this example, the cytokine-associated gene and chemokine-associated gene expression inhibition of a pharmaceutical agent according to the invention was assessed using a DNA chip capable of monitoring a gene expression promotion/inhibition.
Experimental method: First, the K562 was incubated in Groups 1 and 2 in the RPMI medium described above. The both groups were incubated at 42° C. for 20 minutes followed by 37° C. for 30 minutes. The medium of Group 2 was supplemented with HA4 (10 ng/ml).
as §1, with “analyze the” for “analyze”, “expression.” for “expressions.”

rat spinal injury model = assay: Rat spinal injury model, immunostaining of spinal tissue with anti-Hsp72 and anti-synaptophysin antibody; type: in vivo, Wistar rat; conditions: Group 3: continuous intrathecal HA4 6 μg/day, 7 days; compared with Sham-operation (Group 1) and saline (Group 2)
Procedure: In this example, a rat spinal injury model was treated continuously with a physiological saline (saline group) or a physiological saline containing HA4 (HA4 group) followed by sampling the spinal tissue, which was then immunostained with an anti-Hsp72 antibody and/or an anti-synaptophysin antibody. Also in this example, a rat which had been subjected to a Sham-operation was handled as an intact control (Sham-operation group).
The rat spinal injury model was prepared by subjecting a Wistar rat (11-week old when receiving, 12-week old when using) to the procedure described below. First, a cervical to lumbar region of a test rat was clipped using an electric clipper under an anesthesia with pentobarbital and then the clipped region was cleaned with a 70% alcohol and ISOGIN. Then, the dorsal skin was excised to expose the 5th to 10th thoracic vertebrae and then the 6th thoracic vertebra was subjected to a semi-laminectomy. Then a dura was incised slightly and then under an anesthesia with xylocaine, the tip (fabricated to be 0.3 mm) of a microforceps was introduced over the width of the spinal posterior funiculus (about 1.5 mm) until the tip of the microforceps was brought into contact with the abdominal side vertebral body, and the microforceps were moved for 10 seconds to effect a debridement of the spinal cord (hereinafter referred to as a primary injury site). […]

[5] = test system: U937 cell (human monocyte line); assay: Cytokine production by LPS-stimulated U937 cells, Human Cytokine Antibody array; type: cell-based; conditions: U937, LPS 100 ng/ml, HA4 100 ng/ml, 24 hours
Procedure: (§2) An U937 cell was disseminated in a 2 ml aliquot in a 6-well microplate at 5×10^5 cell/ml, supplemented with an LPS at a final concentration of 100 or 1000 ng/ml, and then incubated for 24 hours with 5% CO2 at 37° C. in the presence or absence of HA4 (100 ng/ml). The culture supernatant was centrifuged at 3000 rpm for 5 minutes to obtain a test substance. A 1 ml aliquot of the recovered supernatant was subjected to Human Cytokine Antibody array (Raybio) using an ELISA (ENDOGEN) to detect the production of various cytokines.
(§3) More specifically, the following procedure was employed to measure the production of the cytokines by the cytokine array and the ELISA.
A 2 ml aliquot of a blocking buffer was added to a membrane blotted with an antibody, which was then shaken for 30 minutes. The blocking buffer was removed, and a 1 ml aliquot of the culture supernatant was added and shaken at room temperature for 2 hours, washed 5 times, and then admixed with a primary antibody solution. After agitating at room temperature for 1.5 hours followed by washing 5 times, a secondary antibody solution was added and agitated overnight at 4° C. After washing 5 times, a chemiluminescence was allowed to develop and photographed by a Polaroid. The photograph was scanned to obtain its digital data which were subjected to an Image J to measure the luminescent intensity. The ratio based on the luminescent intensity of an internal standard placed in 6 positions in the membrane was calculated. In addition, a relative level (%) based on the expression level in a non-treatment group (NT) being 100 was calculated.

[6] = test system: U937 cell (human monocyte line); assay: IL-6 production by LPS-stimulated U937 cells, ELISA; type: cell-based; conditions: U937, LPS 100 ng/ml, HA4 100 ng/ml, 24 hours
Procedure: as §2, §3
To a microplate, 50 μl of a biotinylated antibody solution and 50 μl of the culture supernatant were added, and allowed to stand at room temperature for 2 hours. After washing with a washing buffer three times, 100 μl of a streptoavidin-HRP solution was added, allowed to stand at room temperature for 30 minutes, and washed with the washing buffer three times. A TMB was added, allowed to stand for at room temperature 30 minutes, and then a quencher was added to stop the reaction and the absorbance at 450 nm was measured (reference: 562 nm). The IL-6 concentration (pg/ml) was calculated based on the standard solutions measured in parallel.

[7] = test system: cerebrospinal tissue of multiple sclerosis model (EAE); assay: DNA array analysis of cerebrospinal tissue of the EAE model; type: in vivo, Lewis rats; conditions: EAE rats
[8] = intraspinal single administration after onset of disease, 60 μg
[9] = intrathecal continuous 6 μg/day from antigen inoculation, Day 14, pooled cerebrospinal tissue

`CC(=O)N[C@H]1[C@H](O[C@H]2[C@H](O)[C@@H](O)[C@H](O[C@H]3[C@H](O)[C@@H](CO)OC(O)[C@@H]3NC(C)=O)O[C@@H]2C(=O)O)O[C@H](CO)[C@@H](O)[C@@H]1O[C@@H]1O[C@H](C(=O)O)[C@@H](O)[C@H](O)[C@H]1O` (some centres unmarked) [HA4, tetrasaccharide hyaluronan] was tested, and the “EAE clinical score at the EAE climax” value ([1]; intraspinal continuous administration after onset of disease, 6 μg/day, 11 days (therapeutic)) was 1.5±1.0, the “EAE clinical score at the EAE climax” value ([1]; intraspinal continuous administration immediately after inoculation, 6 μg/day, 22 days (prophylactic), mean ± SD) was 0.2±0.41 and the “EAE clinical score at the EAE climax” value [1, 8] was 1.8±0.5. For the same compound, the diseased period ([1]; intraspinal continuous administration after onset of disease, 6 μg/day, 11 days) was 4.3 ± 1.5 days, the “cases developing the disease” value ([1]; intraspinal continuous administration immediately after inoculation, 6 μg/day, 22 days) was “⅙” and the diseased period [1, 8] was 5.0 ± 1.5 days. For the same compound, the “Rhodamine 123 staining performance (fluorescent intensity, mitochondrial activity)” value [2] was “inhibited such a reduction”, the “HAA+/− ratio, Caspase 2 gene expression” value (K562 [3]; apoptosis-related) was 0.27 and the “HAA+/− ratio, Granzyme H gene expression” value (K562 [3]; apoptosis-related) was 0.38. For the same compound, the “HAA+/− ratio, STK17b (DARK2) gene expression” value (K562 [3]; apoptosis-related) was 0.09, the “HAA+/− ratio, pawr (Par-4) gene expression” value (K562 [3]; apoptosis-related) was 0.45 and the “HAA+/− ratio, dnaj (hsp40) homolog gene expression” value (K562 [3]; heat shock protein-related) was 2.62. For the same compound, the “HAA+/− ratio, DNAJ2 gene expression” value (K562 [3]; transcription control-related) was 0.34, the “HAA+/− ratio, TAF9L gene expression” value (K562 [3]; transcription control-related) was 0.43 and the “HA4(+)/HA4(−) ratio, CCL28 gene expression” value (K562 [4]) was 0.32. For the same compound, the “HA4(+)/HA4(−) ratio, IFN-γ gene expression” value (K562 [4]) was 0.11, the “HA4(+)/HA4(−) ratio, IFN-ω1 gene expression” value (K562 [4]) was 0.5 and the “HA4(+)/HA4(−) ratio, IL-1β gene expression” value (K562 [4]) was 0.36. The “HA4(+)/HA4(−) ratio, IL-5 gene expression” value (K562 [4]) was 0.28, the “HA4(+)/HA4(−) ratio, IL-17b gene expression” value (K562 [4]) was 0.31 and the “HA4(+)/HA4(−) ratio, IL-18RAP gene expression” value (K562 [4]) was 0.32. The “HA4(+)/HA4(−) ratio, Mig(CXCL9) gene expression” value (K562 [4]) was 0.11, the “Hsp72 immunostaining at primary and secondary injury sites” value (rat spinal injury model) was “a further intense staining” and the “synaptophysin immunostaining at primary and secondary injury sites” value (rat spinal injury model) was “an expression close to that observed in Group 1”. For the same compound, the “production of IL-1α (cytokine array)” value [5] was “reduction”, the “production of IL-1β (cytokine array)” value [5] was “reduction” and the “production of IL-6 (cytokine array)” value [5] was “reduction”. For the same compound, the “production of TGF-β (cytokine array)” value [5] was “reduction”, the “production of TNF-α (cytokine array)” value [5] was “reduction” and the “production of TNF-β (cytokine array)” value [5] was “reduction”. The “production of IL-6 (ELISA)” value [6] was “reduction”, the “IL-6 mRNA expression in cerebrospinal tissue” value ([7]; HA4 administered intrathecally after antigen inoculation, DNA array) was “increased” and the “Expression level ratio (HA/physiological saline), Decoy TRAIL receptor without death domain” value [7, 9] was 2.0. For the same compound, the “Expression level ratio (HA/physiological saline), Fibroblast growth factor receptor substrate 2” value [7, 9] was 2.3 and the “Expression level ratio (HA/physiological saline), Transthyretin” value [7, 9] was 0.38.
